The subject of test [1] is olfactory sensory neurons. As to the kind of experiment: Ca2+ imaging of dissociated olfactory sensory neurons (Fura-2). It counts as cell-based, mouse. As to conditions: 50 μM each; 6 independent neurons (FIG. 2). The text has this:
The olfactory epithelium containing native olfactory neurons from a mouse was isolated and dissociated into single cells and then transferred to a dissociation buffer for a gentle mechanical and enzymatic dissociation. In order to optimize the dissociation protocol, the general procedure for making fresh dissociation buffer was followed as set forth in Araneda et al. (2004), A Pharmacological Profile of the Aldehyde Receptor Repertoire in Rat Olfactory Epithelium. Journal of Physiology: 555:743-756 with the following modifications: DNAse I instead of DNAse II, Ca2+ concentration elevated to 5 mM and pH adjusted at 7.35 at 32°. Dissociated neurons were then seeded on a coverslip allowing the screening of >2,500 cells by fluorescence microscopy. The cells were then loaded with a calcium sensitive dye (Fura-2 AM) for 30 minutes at 31° C. and transferred onto a microscope ready for screening. […]
Olfactory neurons that responded to indole and skatole were identified by stimulating receptors with 50 μm indole followed by 50 μm skatole and monitoring the intracellular Ca2+ flux indicated by changes in Fura-2 fluorescence. […] Average Fluorescence Intensity, relative fluorescent unit as a result of a ratiometric 340/380 nm recordings.

A further test relates to Olfr740. The experiment in a line: cell-based cAMP assay (HTRF), HEK293T co-transfected with Gαolf. Set-up: species or system mouse. As to conditions: increasing concentrations; FIGS. 5A-5D. The source says:
(§1) The activity of candidate mouse receptors Olfr740 (SEQ ID NO: 1 and SEQ ID NO: 2), Olfr743 (SEQ ID NO: 5 and SEQ ID NO: 6), and Olfr746 (SEQ ID NO: 37 and SEQ ID NO: 38) to both indole and skatole malodors were confirmed in cell-based cAMP assays. In FIGS. 5A and 5B, FLAG Rho-tagged (SEQ ID 18) Olfr743 (SEQ ID NO: 6) and Olfr740 (SEQ ID NO: 2) cDNA sequences were co-transfected with Gαolf (SEQ ID NO: 21) and exposed to increasing concentrations of indole (left) or skatole (right). FIGS. 5C and 5D are repeat experiments showing similar activity of Olfr740 (SEQ ID NO: 2) with Olfr743 (SEQ ID NO: 6) with indole and skatole. In FIG. 5E, the FLAG Rho-tagged (SEQ ID 18) Olfr746 (SEQ ID NO: 38) cDNA sequence was co-transfected with Gαolf (SEQ ID NO: 21) and exposed to increasing concentrations of indole or skatole. Odorant-induced activity was detected by measuring cAMP levels in the cytosol using the HTRF approach (CisBio kit). […] Co-transfection of HEK cells with Gαolf (SEQ ID NO: 21) alone (no receptor) were used as controls for non-specific activity (control). Activity is defined as the baseline corrected HTRF ratios normalized to the highest signal in the experiment. […] All three receptors show specific dose dependent activity to the malodor compounds and, as such, validate the process for identifying receptors for these compounds. Mouse receptors Olfr740 (SEQ ID NO: 1 and SEQ ID NO: 2) and Olfr743 (SEQ ID NO: 5 and SEQ ID NO: 6) were identified from isolated olfactory neurons that responded to both indole and skatole. Mouse receptor Olfr746 (SEQ ID NO: 37 and SEQ ID NO: 38) was identified in silico by database mining using Olfr740 (SEQ ID NO: 2) and Olfr743 (SEQ ID NO: 6) as query sequences. The receptors are modified at their N-terminus with the FLAG tag and the first 20 amino acids of the bovine rhodopsin receptor (SEQ ID 18), transiently expressed in HEK 293T cells, and stimulated separately with indole and skatole to confirm their identity as bona fide indole/skatole receptors. Co-expression of the human G alpha subunit Gαolf (SEQ ID NO: 21) activates the Gs transduction pathway that leads to an internal cAMP increase upon binding to the appropriate ligand.
In general terms: Changes in cAMP serve as a functional read-out for many G protein-coupled receptors.

For another test, the system named is Olfr746. Described as above. Further details: species or system mouse. As to conditions: increasing concentrations; FIG. 5E.
Excerpt: as §1

A further test has as its target Olfr743 (Mus musculus, UniProt L7N1Y2). The test is described as above. As to conditions: for receptor activity (cAMP, HTRF): increasing concentrations, FIGS. 5A-5D.
Excerpt: as §1
Once identified using the procedure outlined herein, the resulting malodor receptor cell lines can be used to screen chemical libraries for compounds that modulate their activity and possibly human perception. This experiment was performed under the same conditions as in Example 4. Cells transfected with Rho-tagged (SEQ ID NO: 18) Olfr743 (SEQ ID NO: 6) were exposed to increasing concentrations of indole in the presence or absence of 300 μM 2-actetonaphthone. […] In the presence of the antagonist compound, a rightward shift of in the dose-response curve is observed resulting in a 4 fold increase in the EC50 to indole. Activity is defined as the baseline corrected HTRF ratios normalized to the highest signal in the experiment.

Olfr743, sequence (P38405 2-381): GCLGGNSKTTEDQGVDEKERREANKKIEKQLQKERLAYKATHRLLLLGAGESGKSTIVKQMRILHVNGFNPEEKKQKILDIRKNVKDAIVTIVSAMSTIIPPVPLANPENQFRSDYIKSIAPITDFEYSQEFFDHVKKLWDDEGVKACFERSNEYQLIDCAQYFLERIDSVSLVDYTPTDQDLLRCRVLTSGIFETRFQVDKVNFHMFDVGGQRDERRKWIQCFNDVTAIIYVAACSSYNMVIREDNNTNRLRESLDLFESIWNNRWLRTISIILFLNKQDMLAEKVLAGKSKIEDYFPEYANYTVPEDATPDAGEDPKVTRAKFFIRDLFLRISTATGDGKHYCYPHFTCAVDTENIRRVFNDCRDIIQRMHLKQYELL
Olfr743, sequence (L7N1Y2 entry or part of it): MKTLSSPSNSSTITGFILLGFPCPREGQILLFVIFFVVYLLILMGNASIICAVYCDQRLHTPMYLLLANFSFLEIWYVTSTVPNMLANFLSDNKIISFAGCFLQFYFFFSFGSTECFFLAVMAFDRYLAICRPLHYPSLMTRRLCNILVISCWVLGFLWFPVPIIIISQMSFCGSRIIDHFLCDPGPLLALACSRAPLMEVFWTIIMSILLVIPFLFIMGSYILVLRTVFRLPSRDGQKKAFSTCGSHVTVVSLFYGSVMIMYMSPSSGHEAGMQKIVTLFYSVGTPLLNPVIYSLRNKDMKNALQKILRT

`c1ccc2[nH]ccc2c1` [indole]: the “activation of olfactory sensory neurons (intracellular Ca2+ flux, Fura-2 fluorescence)” value in test [1] is “activated”. The “receptor activity (cAMP, HTRF)” value in the test with Olfr740, with Olfr746 and on Olfr743 was “dose-dependent increase of receptor activity” throughout. For the same compound, the EC50 came out at 54 µM at Olfr743 (EC50, indole alone, absence of 2-acetonaphthone) and 206 µM on Olfr743 (EC50, indole in the presence of 300 μM 2-acetonaphthone).
Take `Cc1c[nH]c2ccccc12` [skatole, 3-methyl indole]: in test [1], the “activation of olfactory sensory neurons (intracellular Ca2+ flux, Fura-2 fluorescence)” value was “activated”. Also, the “receptor activity (cAMP, HTRF)” value in the test on Olfr740, in the test with Olfr746 and on Olfr743 was “dose-dependent increase of receptor activity” throughout.

For orientation: EC50 means the concentration at which the effect is half-maximal.
